The source of these data is publication PMC5824666, “The P-type ATPase inhibiting potential of polyoxotungstates” (Metallomics, 2018).

Where “and” joins values, the source holds several entries; their conditions need not be identical. Equal entries are not always repeated. Where two headings read alike, the source gives them in different places.

Assay [1] addresses T1, SR Ca^2+-ATPase (Oryctolagus cuniculus, UniProt P04191).
T1 construct: Isolated sarcoplasmic reticulum vesicles (SRVs), prepared from rabbit skeletal muscles as described elsewhere; from tissue; host or cells: rabbit skeletal muscle, sarcoplasmic reticulum vesicles
Put plainly: Steady-state SR Ca2+-ATPase ATP hydrolysis, coupled pyruvate kinase/lactate dehydrogenase assay. Particulars: for Type of inhibition of Ca^2+-ATPase: Lineweaver-Burk, TeW6 at 100 μM; for IC50: SR vesicles from skeletal muscle, 25 °C, 2.5 mM ATP, calcimycin 4% (w/w). The class given is biochemical, rabbit. The protocol: All reagents used for the preparation of the calcium pump vesicles were purchased from Sigma-Aldrich (Portugal). Isolated sarcoplasmic reticulum vesicles (SRVs), prepared from rabbit skeletal muscles as described elsewhere,[33] were suspended in 0.1 M KCl, 10 mM HEPES (pH 7.0), diluted 1 : 1 with 2.0 M sucrose and frozen in liquid nitrogen for storage at –80 °C. The protein concentration was determined spectrophotometrically at 595 nm in the presence of 0.125% of sodium dodecyl sulphate (SDS) by Bradford method with bovine serum albumin as a standard. The percentage of each protein present in the SRV preparations was determined by densitometry analysis of SDS-PAGE (7.5% acrylamide) protein bands. The SR Ca^2+-ATPase constituted at least 70% of the total protein amount in the SR-vesicles according to SDS-PAGE. The sarcoplasmic reticulum Ca^2+-ATPase-1 (SERCA-1) was the predominant isoform in our SR preparations.[42]
Steady-state assays of the SR Ca^2+-ATPase were measured spectrophotometrically at 25 °C using the coupled enzyme pyruvate kinase/lactate dehydrogenase assay (Scheme 1) as described elsewhere.[42] Briefly, after the addition of the enzymes (pyruvate kinase and lactate dehydrogenase) and the substrate phosphoenolpyruvate to the medium, the experiment was initiated by adding NADH (0.25 mM) and the vesicles containing Ca^2+-ATPase (10 μg mL^–1).
ATP (2.5 mM) was added and the absorbance was recorded for about 1 minute (basal activity). Afterwards, the calcium ionophore calcimycin 4% (w/w), which releases again the Ca^2+ ions, that were pumped in by the ATPase, was added and the decreasing NADH absorbance at 340 nm was measured for about 2 minutes (uncoupled ATPase activity). This was done to increase the ATPase activity (due to the ionophore-mediated impairment of the Ca^2+ gradient) in order to better study the effect of the inhibitors and to ensure that the SR Ca^2+-ATPase vesicles are not leaky. For the experiments including POTs, freshly prepared POT solutions (10 mM and 1 mM for all POTs except for Se2W29 1 mM and 0.1 mM) were added to the medium prior to the addition of SR Ca^2+-ATPase. The ATPase activity and its inhibition was measured taking into account the decrease of the OD (optical density) per minute in the absence (100%) and in the presence of the investigated POTs.[33] The detection system was not affected by the POTs themselves (not even at their highest concentrations), which was confirmed by a rapid decrease in absorbance at 340 nm upon addition of 40 μM ADP after the assay. All experiments were performed at least in triplicates. The inhibitory power of the investigated POTs was evaluated by determining the respective IC50 value, that is, the POT concentration needed to induce a 50% inhibition of the Ca^2+-ATPase enzyme activity.

Assay [2] concerns Na^+/K^+-ATPase from basal membrane of opercular epithelium. Put plainly: Epithelial short circuit current (Isc) in Ussing chambers ex vivo, POT added basolaterally. Format: cell-based, killifish (F. heteroclitus). Particulars: basolateral; for Maximum inhibition: % of basal Isc. From the text: Epithelial tissues can transport ions and generate a transepithelial voltage termed “active transport potential”, which is caused by the asymmetric distribution of ion channels and transporters on the apical and basolateral membranes. The net movement of charges from the apical to the basolateral side (and vice versa) generates a voltage equal to the voltage differences between the apical and basolateral membranes. Ex vivo, the short circuit current (Isc) is an accurate reflection of the secretory/absorptive capacity of the tissue when short-circuited. In the opercular epithelium of killifish used for our studies, Isc is a direct measure of apical chloride secretion mediated by chloride channels, which relies on an intact basolateral Na^+/K^+-ATPase function.[43],[44]
Methodology for the ex vivo opercular epithelia preparation followed our current methods.[45] Fish were anaesthetized with 2-phenoxyethanol (1 : 2000 v/v), sacrificed by decapitation and the cranium was cut longitudinally. The gills and other tissue remains were removed carefully and the epithelial skin covering the opercular bone were dissected out and transferred to fresh-gassed saline (99.7 : 0.3 O2/CO2) with the following composition (all values in mM): NaCl, 160; MgSO4, 0.93; NaH2PO4, 3.0; CaCl2, 1.5; NaHCO3, 17.85; KCl, 3.0; glucose, 5.5; HEPES (pH 7.8), 5.0. The epithelia were overlaid onto a thin bore polythene net, protected between two parafilm gaskets and pinned over the circular aperture of a tissue holder (P2410, 0.20 cm^2, Physiological Instruments, San Diego, USA), with the perimeter area lightly greased with vacuum silicone to minimize tissue edge damage. The mounted tissue was positioned between the two halves of the Ussing chamber (P2400, Physiological Instruments, San Diego, USA) with 4 mL of gassed saline at 22 °C and gassed with a 99.7 : 0.3 O2/CO2 mix to provide oxygenation, good mixing by gas lift and pH control (pH = 7.8).
The preparations were left to stand for at least 60 min or until a steady basal measurement of bioelectrical variables was achieved. Measurement of the short circuit current (Isc, μA cm^–2) was performed at symmetric conditions under voltage clamp to 0 mV. The open circuit potential (Vt, mV) and Isc were monitored by means of Ag/AgCl electrodes connected to the chambers by 3 mm bore agar bridges (1 M KCl in 3% agar). Clamping of epithelia to 0 mV and recording of Isc was performed by VCC600 voltage clamp amplifiers (Physiologic Instruments, San Diego, USA). Epithelial resistance (Rt, Ω cm^2) was manually calculated (Ohm's law) using the current deflections induced by bilateral 1 mV pulses of 3 s every minute. Bioelectrical data were continuously digitized through a Lab-Trax-4 (WPI, Sarasota, US) onto a Macbook laptop using Labscribe3 Software (Iworks systems, Dover, US). Upon signal baseline stabilization, freshly prepared POT solutions were added to the basal or the apical side of the chamber (Fig. 2) and the effects on the Na^+/K^+-ATPase from basal membrane or the chloride channel forming the apical membrane were followed for 60 to 90 minutes. The maximum inhibitory effect (in %) of the POTs on the ATPase activity and the effective time (ET50), which is the time necessary to reach 50% of the maximum effects (in minutes), was determined by measuring the % decrease of short circuit current (Isc, μA cm^–2) in the absence (100% activity) and presence of the POTs. All the experiments were performed at least in triplicates. Calculations of the ET50 and maximum effect values were performed using GraphPad Prism version 6.00 for Macintosh (GraphPad Software, La Jolla California USA).

The target of assay [3] is T1, SR Ca^2+-ATPase. Further details: method as in PMID 22178669. Particulars: cited from earlier work; for IC50: previously reported; for Type of inhibition of Ca^2+-ATPase: regarding the natural ligand MgATP.
Another assay deals with Na^+/K^+-ATPase. Particulars: previous studies; cited from earlier work.

T1 sequence (P04191 1-994 isoform P04191-2): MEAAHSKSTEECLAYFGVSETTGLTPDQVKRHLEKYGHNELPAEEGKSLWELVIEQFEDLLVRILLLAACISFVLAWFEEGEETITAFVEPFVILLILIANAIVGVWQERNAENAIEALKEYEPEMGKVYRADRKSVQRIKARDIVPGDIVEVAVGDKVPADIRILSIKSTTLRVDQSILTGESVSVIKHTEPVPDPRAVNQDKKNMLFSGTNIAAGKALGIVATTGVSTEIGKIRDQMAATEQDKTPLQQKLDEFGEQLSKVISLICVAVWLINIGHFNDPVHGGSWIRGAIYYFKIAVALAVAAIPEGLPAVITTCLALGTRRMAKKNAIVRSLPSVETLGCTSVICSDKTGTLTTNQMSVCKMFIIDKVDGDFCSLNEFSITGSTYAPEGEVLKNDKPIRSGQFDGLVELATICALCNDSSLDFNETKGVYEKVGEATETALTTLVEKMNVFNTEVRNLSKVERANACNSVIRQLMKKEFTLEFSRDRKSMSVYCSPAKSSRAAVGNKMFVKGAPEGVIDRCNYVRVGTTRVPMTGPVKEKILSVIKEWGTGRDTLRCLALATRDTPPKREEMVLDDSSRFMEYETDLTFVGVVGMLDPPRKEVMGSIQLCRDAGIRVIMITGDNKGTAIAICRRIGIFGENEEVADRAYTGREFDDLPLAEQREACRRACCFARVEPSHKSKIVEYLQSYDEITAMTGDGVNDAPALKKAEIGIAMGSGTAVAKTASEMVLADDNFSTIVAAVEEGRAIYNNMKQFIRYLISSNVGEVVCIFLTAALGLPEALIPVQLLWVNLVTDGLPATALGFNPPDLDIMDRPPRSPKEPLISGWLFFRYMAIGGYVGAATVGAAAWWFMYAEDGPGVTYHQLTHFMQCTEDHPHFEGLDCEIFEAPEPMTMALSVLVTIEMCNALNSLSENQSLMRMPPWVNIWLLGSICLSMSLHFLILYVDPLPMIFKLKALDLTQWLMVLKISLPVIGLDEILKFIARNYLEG

With K6[α-P2W18O62]·14H2O, the “Type of inhibition of Ca^2+-ATPase” value on SR Ca^2+-ATPase [1] was “mixed type of inhibition”. In addition, the “ET50 (time to reach 50% of the maximum effect)” value in assay [2] (0.5 μM compound) is given as 8.2 (0.5 μM) min; in assay [2] (1 μM compound), 6.5 (1 μM) min; in assay [2] (10 μM compound), 4.3 (10 μM) min. Besides, the Maximum inhibition in assay [2] (0.5 μM compound) is 86%; in assay [2] (1 μM compound, 1 µM), 99%; in assay [2] (10 μM compound) it was about 100%.

Turning to K6H2[TiW11CoO40]·13H2O [CoW11Ti], in assay [2] (10 μM compound), the “ET50 (time to reach 50% of the maximum effect)” value is 10 (10 μM) min and the Maximum inhibition was found to be 75%.

As for `[O]=[W](=[O])([OH])[OH]` [orthotungstate], the IC50 at SR Ca^2+-ATPase [3] was 400 µM; on Na^+/K^+-ATPase, 1500 µM.

Consider K14[As2W19O67(H2O)]·23H2O, for which the IC50 at SR Ca^2+-ATPase [1] was determined as 28 µM. The “Effect on ATPase activity after 30 minutes” value (“Effect on ATPase activity” for short) in assay [2] (10 μM compound) is on record as “no effect”.

In the case of Na6[TeW6O24]·22H2O, on SR Ca^2+-ATPase [1], the “Type of inhibition of Ca^2+-ATPase” value is “mixed type of inhibition” and the IC50 came to 200 µM. Moreover, in assay [2] (10 μM compound), the “ET50 (time to reach 50% of the maximum effect)” value was 60 (10 μM) min and the Maximum inhibition is on record as 10%.

In the case of decaniobate [Nb10], on SR Ca^2+-ATPase [3], the 50% inhibitory concentration (IC50) is 35 µM and the “Type of inhibition of Ca^2+-ATPase” value is recorded as “non-competitive”.

For K12[α-H2P2W12O48]·16H2O, the IC50 at SR Ca^2+-ATPase [1] worked out at 11 µM. Besides, the “Effect on ATPase activity” value in assay [2] (10 μM compound) was “no effect”.

With `C[C@@H]1O[C@@H](O[C@H]2C[C@@H](O)[C@]3(CO)[C@H]4[C@H](O)C[C@]5(C)[C@@H](C6=CC(=O)OC6)CC[C@]5(O)[C@@H]4CC[C@]3(O)C2)[C@H](O)[C@H](O)[C@H]1O` [Ouabain, reference compound], in assay [2] (10 μM compound), the “ET50 (time to reach 50% of the maximum effect)” value is 3.2 ± 0.2 min and 3.2 min and 3.2 (10 μM) min; the Maximum inhibition was 100%.

In the case of Na9[B-α-AsW9O33]·27H2O, on SR Ca^2+-ATPase [1], the 50% inhibitory concentration (IC50) amounted to 20 µM. In assay [2] (10 μM compound), the “ET50 (time to reach 50% of the maximum effect)” value was 8.5 min and 8.5 (10 μM) min; the Maximum inhibition is given as 66%.

With Na12[H4W22O74]·50H2O, the IC50 at SR Ca^2+-ATPase [1] is 68 µM. The “Effect on ATPase activity” value in assay [2] (10 μM compound) is recorded as “no effect”.

On to K9(C2H8N)5[H10Se2W29O103]·30H2O, for which, in assay [2] (1 μM compound), the “ET50 (time to reach 50% of the maximum effect)” value is reported as 6.5 (1 μM) min and the Maximum inhibition was found to be 14%.

As to `[O]=[V]([O-])([O-])[O][V]1(=[O])[O][V]2(=[O])[O][V](=[O])([O][V](=[O])([O-])[O-])[O][V](=[O])([O]2)[O][V]2(=[O])[O][V](=[O])([O][V](=[O])([O-])[O-])[O][V](=[O])([O]1)[O]2` (stereo not shown) [V10, decavanadate], on SR Ca^2+-ATPase [3], the IC50 is 15 µM and the “Type of inhibition of Ca^2+-ATPase” value is given as “non-competitive”.

Take Na10[A-α-SiW9O34]·16H2O: on SR Ca^2+-ATPase [1], the IC50 was 16 µM. In addition, the “Effect on ATPase activity” value in assay [2] (10 μM compound) is on record as “no effect”.
